Data from ChEMBL document CHEMBL4346678, “Synthesis and anti-cancer evaluation of folic acid-peptide- paclitaxel conjugates for addressing drug resistance” (Eur J Med Chem, 2019).
The source made the active and inactive calls. The calls are words filed in the database; no cut-off is given here. Starred links: 1 amine or outer side, 2 acyl side, 3 side chain; linkers in the order of their positions; H or OH if unused. Residues, ends and D or L forms follow the SMILES beside them. *: point of attachment. X1 = CC(=O)O[C@H]1C(=O)[C@@]2(C)[C@H]([C@H](OC(=O)c3ccccc3)[C@]3(O)C[C@H](OC(=O)[C@H](OC(=O)CCCCCN4C(=O)CC(*)C4=O)[C@@H](NC(=O)c4ccccc4)c4ccccc4)C(C)=C1C3(C)C)[C@]1(OC(C)=O)CO[C@@H]1C[C@@H]2O; Pteroyl = Nc1nc2ncc(CNc3ccc(C(=O)*)cc3)nc2c(=O)[nH]1; γGlu = O=C(O)[C@H](CCC(=O)[*:2])N[*:1]

Tests used:
MCF7/PTX [1] = assay: Induction of apoptosis in human MCF7/PTX cells assessed as increase in cleaved caspase 3 level in cytoplasm at 3 uM incubated for 2 hrs by Western blot analysis; type: functional, cell-based
MCF7/PTX [2] = assay: Induction of apoptosis in human MCF7/PTX cells assessed as necrotic cells at 6 uM incubated for 12 hrs by Annexin V-FITC/propidium iodide staining based flow cytometric analysis (reference value: 2.1%); type: functional
HUVEC = assay: Cytotoxicity against HUVEC incubated for 48 hrs by MTT assay; type: cell-based; conditions: Homo sapiens
MCF7/PTX [3] = assay: Induction of apoptosis in human MCF7/PTX cells assessed as live cells at 0.5 uM incubated for 12 hrs by Annexin V-FITC/propidium iodide staining based flow cytometric analysis (reference value: 95.9%); type: functional
[4] = Antitumor activity against […] cells xenografted in ICR mouse assessed as reduction in tumor volume at 12 umol/kg administered once every 2 days via peritumoral route for 2 weeks measured for 22 days by caliper analysis relative to control; type: functional
MCF7/PTX [5] = assay: Induction of apoptosis in human MCF7/PTX cells assessed as necrotic cells at 3 uM incubated for 12 hrs by Annexin V-FITC/propidium iodide staining based flow cytometric analysis (reference value: 2.1%); type: functional
MCF7/PTX [6] = assay: Induction of apoptosis in human MCF7/PTX cells assessed as early apoptotic cells at 1 uM incubated for 12 hrs by Annexin V-FITC/propidium iodide staining based flow cytometric analysis (reference value: 1.1%); type: functional
MCF7/PTX [7] = assay: Induction of apoptosis in human MCF7/PTX cells assessed increase in cytochrome-c expression in cytoplasm at 3 uM incubated for 2 hrs by Western blot analysis; type: functional, cell-based
K562 = assay: Cytotoxicity against human K562 cells incubated for 48 hrs by MTT assay; type: functional, cell-based; conditions: K562, 48 h
MCF7/PTX [8] = assay: Induction of apoptosis in human MCF7/PTX cells assessed as late apoptotic cells at 0.5 uM incubated for 12 hrs by Annexin V-FITC/propidium iodide staining based flow cytometric analysis (reference value: 0.9%); type: functional
MCF7/PTX [9] = assay: Induction of apoptosis in human MCF7/PTX cells assessed as necrotic cells at 4 uM incubated for 12 hrs by Annexin V-FITC/propidium iodide staining based flow cytometric analysis (reference value: 2.1%); type: functional
MCF7/PTX [10] = assay: Induction of apoptosis in human MCF7/PTX cells assessed as early apoptotic cells at 4 uM incubated for 12 hrs by Annexin V-FITC/propidium iodide staining based flow cytometric analysis (reference value: 1.1%); type: functional
A2780 = assay: Cytotoxicity against human A2780 cells incubated for 48 hrs by MTT assay; type: functional, cell-based; conditions: A2780, 48 h
Erythrocyte = assay: Hemolytic activity in Wistar rat erythrocytes incubated for 1 hr; type: ADME, cell-based
MCF7/PTX [11] = assay: Induction of apoptosis in human MCF7/PTX cells assessed as necrotic cells at 1 uM incubated for 12 hrs by Annexin V-FITC/propidium iodide staining based flow cytometric analysis (reference value: 2.1%); type: functional
MCF7/PTX [12] = assay: Induction of apoptosis in human MCF7/PTX cells assessed as late apoptotic cells at 1 uM incubated for 12 hrs by Annexin V-FITC/propidium iodide staining based flow cytometric analysis (reference value: 0.9%); type: functional
MCF7/PTX [13] = assay: Induction of apoptosis in human MCF7/PTX cells assessed as live cells at 4 uM incubated for 12 hrs by Annexin V-FITC/propidium iodide staining based flow cytometric analysis (reference value: 95.9%); type: functional
MCF7/PTX [14] = assay: Induction of apoptosis in human MCF7/PTX cells assessed as early apoptotic cells at 0.5 uM incubated for 12 hrs by Annexin V-FITC/propidium iodide staining based flow cytometric analysis (reference value: 1.1%); type: functional
MCF7/PTX [15] = assay: Cytotoxicity against human MCF7/PTX cells incubated for 48 hrs by MTT assay; type: functional, cell-based
MCF7/PTX [16] = assay: Induction of apoptosis in human MCF7/PTX cells incubated for 12 hrs by Annexin V-FITC/propidium iodide staining-based flow cytometric analysis; type: functional, cell-based
MCF7/PTX [17] = assay: Induction of apoptosis in human MCF7/PTX cells assessed as necrotic cells at 0.5 uM incubated for 12 hrs by Annexin V-FITC/propidium iodide staining based flow cytometric analysis (reference value: 2.1%); type: functional
MCF7/PTX [18] = assay: Induction of apoptosis in human MCF7/PTX cells assessed as early apoptotic cells at 2 uM incubated for 12 hrs by Annexin V-FITC/propidium iodide staining based flow cytometric analysis (reference value: 1.1%); type: functional
MCF7/PTX [19] = assay: Induction of membrane disruption in human MCF7/PTX cells incubated for 12 hrs by LDH release assay; type: functional, cell-based
MCF7/PTX [20] = assay: Induction of apoptosis in human MCF7/PTX cells assessed as late apoptotic cells at 3 uM incubated for 12 hrs by Annexin V-FITC/propidium iodide staining based flow cytometric analysis (reference value: 0.9%); type: functional
MCF7/PTX [21] = assay: Induction of apoptosis in human MCF7/PTX cells assessed as live cells at 2 uM incubated for 12 hrs by Annexin V-FITC/propidium iodide staining based flow cytometric analysis (reference value: 95.9%); type: functional
MCF7/PTX [22] = assay: Induction of apoptosis in human MCF7/PTX cells assessed as live cells at 3 uM incubated for 12 hrs by Annexin V-FITC/propidium iodide staining based flow cytometric analysis (reference value: 95.9%); type: functional
MCF7/PTX [23] = assay: Induction of apoptosis in human MCF7/PTX cells assessed as late apoptotic cells at 6 uM incubated for 12 hrs by Annexin V-FITC/propidium iodide staining based flow cytometric analysis (reference value: 0.9%); type: functional
MCF7/PTX [24] = assay: Induction of apoptosis in human MCF7/PTX cells assessed as late apoptotic cells at 4 uM incubated for 12 hrs by Annexin V-FITC/propidium iodide staining based flow cytometric analysis (reference value: 0.9%); type: functional
MCF7/PTX [25] = assay: Induction of apoptosis in human MCF7/PTX cells assessed as early apoptotic cells at 6 uM incubated for 12 hrs by Annexin V-FITC/propidium iodide staining based flow cytometric analysis (reference value: 1.1%); type: functional
MCF7/PTX [26] = assay: Induction of membrane disruption in human MCF7/PTX cells at 3 uM incubated for 12 hrs by AO/EB double staining based fluorescence microscopic method; type: functional, cell-based
Tubulin (Sus scrofa) = Tubulin (Sus scrofa) (UniProt P02554+P02550); assay: Induction of porcine brain tubulin polymerization at 3 uM by fluorescence analysis
Sequence of Tubulin (Sus scrofa) (P02550 whole entry, looked up): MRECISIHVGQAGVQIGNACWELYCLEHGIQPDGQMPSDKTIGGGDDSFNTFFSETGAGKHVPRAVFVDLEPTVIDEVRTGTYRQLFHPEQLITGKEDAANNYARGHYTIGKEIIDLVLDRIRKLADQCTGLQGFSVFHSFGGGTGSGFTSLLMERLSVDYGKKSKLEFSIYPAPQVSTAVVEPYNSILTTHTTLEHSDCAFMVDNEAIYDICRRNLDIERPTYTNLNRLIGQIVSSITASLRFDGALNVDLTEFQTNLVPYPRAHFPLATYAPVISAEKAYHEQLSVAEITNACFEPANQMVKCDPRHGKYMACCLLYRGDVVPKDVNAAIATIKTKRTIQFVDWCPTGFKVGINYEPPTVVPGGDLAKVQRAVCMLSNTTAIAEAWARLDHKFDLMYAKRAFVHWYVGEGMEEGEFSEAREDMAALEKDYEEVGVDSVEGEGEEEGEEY
Sequence of Tubulin (Sus scrofa) (P02554 whole entry, looked up): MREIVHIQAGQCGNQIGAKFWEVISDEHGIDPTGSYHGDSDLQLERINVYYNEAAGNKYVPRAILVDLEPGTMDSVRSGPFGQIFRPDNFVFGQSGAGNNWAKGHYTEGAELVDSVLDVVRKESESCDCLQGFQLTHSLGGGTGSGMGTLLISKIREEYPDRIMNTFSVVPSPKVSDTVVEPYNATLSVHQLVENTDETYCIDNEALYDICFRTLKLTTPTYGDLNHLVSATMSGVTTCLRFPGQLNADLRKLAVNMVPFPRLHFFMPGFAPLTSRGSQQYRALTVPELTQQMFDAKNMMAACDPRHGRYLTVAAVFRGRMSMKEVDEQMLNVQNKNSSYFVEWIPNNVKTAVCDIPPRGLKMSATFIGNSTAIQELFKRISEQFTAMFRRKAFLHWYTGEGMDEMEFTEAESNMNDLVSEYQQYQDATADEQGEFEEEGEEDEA

MCF7/PTX [27] = assay: Induction of apoptosis in human MCF7/PTX cells assessed as late apoptotic cells at 2 uM incubated for 12 hrs by Annexin V-FITC/propidium iodide staining based flow cytometric analysis (reference value: 0.9%); type: functional
MCF7 = assay: Cytotoxicity against human MCF7 cells incubated for 48 hrs by MTT assay; type: functional, cell-based; conditions: MCF7, 48 h
MCF7/PTX [28] = assay: Induction of membrane disruption in human MCF7/PTX cells incubated for 12 hrs by AO/EB double-staining based fluorescence microscopic method; type: functional, cell-based
MCF7/PTX [29] = assay: Induction of apoptosis in human MCF7/PTX cells assessed as necrotic cells at 2 uM incubated for 12 hrs by Annexin V-FITC/propidium iodide staining based flow cytometric analysis (reference value: 2.1%); type: functional
MCF7/PTX [30] = assay: Induction of apoptosis in human MCF7/PTX cells assessed as live cells at 1 uM incubated for 12 hrs by Annexin V-FITC/propidium iodide staining based flow cytometric analysis (reference value: 95.9%); type: functional
MCF7/PTX [31] = assay: Induction of mitochondrial membrane potential loss in human MCF7/PTX cells at 3 uM incubated for 12 hrs by JC1 staining-based confocal microscopic method; type: functional, cell-based
[32] = Solubility of the compound in water; type: physicochemical
SK-OV-3 = assay: Cytotoxicity against human SKOV3 cells incubated for 48 hrs by MTT assay; type: functional, cell-based; conditions: SK-OV-3, 48 h
MCF7/PTX [33] = assay: Induction of apoptosis in human MCF7/PTX cells assessed as early apoptotic cells at 3 uM incubated for 12 hrs by Annexin V-FITC/propidium iodide staining based flow cytometric analysis (reference value: 1.1%); type: functional
[34] = Toxicity in ICR mouse xenografted with […] H22 cells assessed as change in body weight at 12 umol/kg administered once every 2 days via peritumoral route for 2 weeks; conditions: in vivo, other
[35] = Half life in Wistar rat plasma at 500 ug/ml measured over 24 hrs at 37 degC by UPLC/MS analysis; type: ADME, cell-free
MCF7/PTX [36] = assay: Induction of apoptosis in human MCF7/PTX cells assessed as live cells at 6 uM incubated for 12 hrs by Annexin V-FITC/propidium iodide staining based flow cytometric analysis (reference value: 95.9%); type: functional

Question: With `CC(=O)O[C@H]1C(=O)[C@@]2(C)[C@H]([C@H](OC(=O)c3ccccc3)[C@]3(O)C[C@H](OC(=O)[C@H](OC(=O)CCCCCN4C(=O)CC(SC[C@H](NC(=O)[C@H](CCCNC(=N)N)NC(=O)[C@H](CCCNC(=N)N)NC(=O)[C@H](CC(C)C)NC(=O)[C@H](CCCNC(=N)N)NC(=O)[C@H](CCCNC(=N)N)NC(=O)[C@H](Cc5ccccc5)NC(=O)[C@H](Cc5ccccc5)NC(=O)[C@H](CCCNC(=N)N)NC(=O)[C@H](CCCNC(=N)N)NC(=O)[C@H](Cc5ccccc5)NC(=O)[C@H](CCCNC(=N)N)NC(=O)[C@H](CCCNC(=N)N)NC(=O)[C@@H](NC(=O)[C@H](CC(C)C)NC(=O)CC[C@H](NC(=O)c5ccc(NCc6cnc7nc(N)[nH]c(=O)c7n6)cc5)C(=O)O)C(C)C)C(=O)N[C@H](C(=O)N[C@@H](CC(C)C)C(=O)N[C@@H](CC(C)C)C(N)=O)C(C)C)C4=O)[C@@H](NC(=O)c4ccccc4)c4ccccc4)C(C)=C1C3(C)C)[C@]1(OC(C)=O)CO[C@@H]1C[C@@H]2O` (stereo partly drawn) ({Pteroyl-γGlu}-LVRRFRRFFRRLRRC(X1)VLL-NH2) as the compound, how does the Activity (MCF7/PTX [1]) read?
Answer: Active

Question: And the Activity (MCF7/PTX [2])?
Answer: 7.5%

Question: What about the IC50 (HUVEC) of the same compound?
Answer: 45.2 µM

Question: What about the Activity (MCF7/PTX [3]) of the same compound?
Answer: 83.1%

Question: And the inhibition in vivo at 12 µmol/kg [4]?
Answer: 69%

Question: What about the Activity (MCF7/PTX [5]) of the same compound?
Answer: 5.6%

Question: And the Activity (MCF7/PTX [6])?
Answer: 1.6%

Question: What about the Activity (MCF7/PTX [7]) of the same compound?
Answer: Active

Question: And the IC50 (K562)?
Answer: 3.85 µM

Question: What about the Activity (MCF7/PTX [8]) of the same compound?
Answer: 7.4%

Question: What about the Activity (MCF7/PTX [9]) of the same compound?
Answer: 15.1%

Question: What about the Activity (MCF7/PTX [10]) of the same compound?
Answer: 1.4%

Question: And the IC50 (A2780)?
Answer: 1.42 µM

Question: And the Activity (Erythrocyte)?
Answer: Toxic

Question: And the Activity (MCF7/PTX [11])?
Answer: 5.6%

Question: And the Activity (MCF7/PTX [12])?
Answer: 11.4%

Question: What about the Activity (MCF7/PTX [13]) of the same compound?
Answer: 28.8%

Question: And the Activity (MCF7/PTX [14])?
Answer: 2.4%

Question: What about the IC50 (MCF7/PTX [15]) of the same compound?
Answer: 2.92 µM

Question: What about the Activity (MCF7/PTX [16]) of the same compound?
Answer: Dose-dependent effect

Question: What about the Activity (MCF7/PTX [17]) of the same compound?
Answer: 7.1%

Question: And the Activity (MCF7/PTX [18])?
Answer: 1.5%

Question: What about the Activity (MCF7/PTX [19]) of the same compound?
Answer: Dose-dependent effect

Question: And the Activity (MCF7/PTX [20])?
Answer: 41.6%

Question: What about the Activity (MCF7/PTX [21]) of the same compound?
Answer: 65.8%

Question: What about the Activity (MCF7/PTX [22]) of the same compound?
Answer: 51.6%

Question: What about the Activity (MCF7/PTX [23]) of the same compound?
Answer: 62%

Question: And the Activity (MCF7/PTX [24])?
Answer: 54.6%

Question: And the Activity (MCF7/PTX [25])?
Answer: 1.3%

Question: What about the Activity (MCF7/PTX [26]) of the same compound?
Answer: Active

Question: What about the Activity (Tubulin (Sus scrofa)) of the same compound?
Answer: Active

Question: What about the Activity (MCF7/PTX [27]) of the same compound?
Answer: 28.8%

Question: And the IC50 (MCF7)?
Answer: 1.39 µM

Question: What about the Activity (MCF7/PTX [28]) of the same compound?
Answer: Dose-dependent effect

Question: And the Activity (MCF7/PTX [29])?
Answer: 3.9%

Question: What about the Activity (MCF7/PTX [30]) of the same compound?
Answer: 81.4%

Question: What about the Activity (MCF7/PTX [31]) of the same compound?
Answer: Active

Question: And the solubility [32]?
Answer: > 20 mg/mL

Question: What about the IC50 (SK-OV-3) of the same compound?
Answer: 5.49 µM

Question: And the Activity (MCF7/PTX [33])?
Answer: 1.2%

Question: And the Activity [34]?
Answer: Non-Toxic

Question: And the half-life at 500 ug/ml [35]?
Answer: 5.9 h

Question: And the Activity (MCF7/PTX [36])?
Answer: 29.2%
